PMC5602355, “Endogenous Isoquinoline Alkaloids Agonists of Acid-Sensing Ion Channel Type 3” (Frontiers in Molecular Neuroscience, 2017)

What was measured:
[1] = Solubility in physiological solutions for electrophysiology; assay type: physicochemical; conditions: in words; maximal concentration used 1 mM
Experimental: (§1) Consequently, a maximal concentration of 1 mM was used in experimentations. The maximal effect on hASIC3 reached about 60% of Imax.

human ASIC3 (hASIC3) [2] = target: T1, human ASIC3 (hASIC3) (Homo sapiens, UniProt Q9UHC3); test: Activation of hASIC3 channels expressed in Xenopus laevis oocytes, whole-cell two electrode voltage clamp; assay type: cell-based; conditions: for Maximal activating effect reached, % of Imax: Imax predicted by logistic fit
T1 construct: expressed in transfected cells; host or cells: Xenopus laevis oocytes (injected)
T1 sequence (Q9UHC3 1-531): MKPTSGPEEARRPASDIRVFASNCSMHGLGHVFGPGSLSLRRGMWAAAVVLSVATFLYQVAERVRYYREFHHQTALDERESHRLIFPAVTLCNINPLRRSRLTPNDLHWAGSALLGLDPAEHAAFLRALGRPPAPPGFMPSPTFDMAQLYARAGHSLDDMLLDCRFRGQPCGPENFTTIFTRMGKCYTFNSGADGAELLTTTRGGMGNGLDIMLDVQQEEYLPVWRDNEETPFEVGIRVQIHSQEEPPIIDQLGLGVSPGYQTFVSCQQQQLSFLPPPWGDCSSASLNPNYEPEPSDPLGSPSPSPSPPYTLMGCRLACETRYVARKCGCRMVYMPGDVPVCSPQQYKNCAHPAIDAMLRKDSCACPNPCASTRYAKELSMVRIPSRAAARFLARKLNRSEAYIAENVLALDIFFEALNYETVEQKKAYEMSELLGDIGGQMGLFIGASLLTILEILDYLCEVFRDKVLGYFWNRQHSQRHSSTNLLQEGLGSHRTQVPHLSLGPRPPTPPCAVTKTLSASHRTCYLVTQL
Text: (§2) The ability of EIAs to activate ASIC3 channels was studied in whole-cell configuration on oocytes of Xenopus laevis. THP and reticuline caused slowly activated sustained inward currents both in human (Figures 1A,B) and rat (Figures 1C,D) homomeric ASIC3 channels at resting pH 7.4 and above.
(§3) In the case of human ASIC3 channels (hASIC3), the activating effect was greater and even exceeded the response of the cell to pH drop of 7.8–5.5 in control experiments (Figure 1A). The maximal effect reached about 30% of Imax (a maximal amplitude predicted by the logistic equation fitting of dose-dependence of EIA-induced current). […] THP shown the same potency on the rASIC3 channel (rASIC3; Figure 1C). The activating effect under the same conditions reached about 30% of Imax.
as §1
(§4) Oocytes expressed hASIC3 and rASIC3 homomeric channels were prepared as described (Dubinnyi et al., [2012]). After injection, the oocytes were kept for 2–3 days at 19°C and then up to 7 days at 15°C in an ND-96 medium containing (in mM): 96 NaCl, 2 KCl, 1.8 CaCl2, 1 MgCl2 and 10 HEPES titrated to pH 7.4 with NaOH supplemented with gentamycin (50 μg/ml). Two electrode voltage clamp recordings were made using a GeneClamp500 amplifier (Axon Instruments), and data were filtered at 20 Hz and digitized at 100 Hz by an AD converter L780 (L-Card, Moscow, Russia) using homemade software. A computer-controlled valve system for a fast solution switch was used. Microelectrodes were filled with 3 M KCl solutions. All solutions of the testing compounds were supplemented with 0.1% BSA. To induce currents, we employed ND-96-modified solutions in which 10 mM of HEPES was substituted for 5 mM MES pH 5.5. A set of external ND-96 solutions with pH 6.8–7.0 (buffered with 10 mM of MOPS), pH 7.1–8.0 (buffered with 10 mM of HEPES) was prepared.
The analysis of electrophysiological data was performed using the program OriginPro 8.6. The curve-fitting analysis was carried out with the following four-parameter logistic equation: F(x) = A/(1 + (x/x0)n), where x is the concentration of the ligand, F(x) is the response value at a given ligand concentration, A is the response value at maximal activation (% of control), x0 is the EC50 value and n is the Hill coefficient (slope factor). All data are presented as the mean ± SE.

rat ASIC3 (rASIC3) [3] = target: T2, rat ASIC3 (rASIC3) (Rattus norvegicus, UniProt O35240); test: Recovery of the transient current of rASIC3 from steady-state desensitization, oocytes; assay type: cell-based; conditions: rASIC3, conditioning pH 6.8, pH 5.5 stimulus, n = 4-5
T2 construct: expressed in transfected cells; host or cells: Xenopus laevis oocytes (injected)
T2 sequence (O35240 1-533): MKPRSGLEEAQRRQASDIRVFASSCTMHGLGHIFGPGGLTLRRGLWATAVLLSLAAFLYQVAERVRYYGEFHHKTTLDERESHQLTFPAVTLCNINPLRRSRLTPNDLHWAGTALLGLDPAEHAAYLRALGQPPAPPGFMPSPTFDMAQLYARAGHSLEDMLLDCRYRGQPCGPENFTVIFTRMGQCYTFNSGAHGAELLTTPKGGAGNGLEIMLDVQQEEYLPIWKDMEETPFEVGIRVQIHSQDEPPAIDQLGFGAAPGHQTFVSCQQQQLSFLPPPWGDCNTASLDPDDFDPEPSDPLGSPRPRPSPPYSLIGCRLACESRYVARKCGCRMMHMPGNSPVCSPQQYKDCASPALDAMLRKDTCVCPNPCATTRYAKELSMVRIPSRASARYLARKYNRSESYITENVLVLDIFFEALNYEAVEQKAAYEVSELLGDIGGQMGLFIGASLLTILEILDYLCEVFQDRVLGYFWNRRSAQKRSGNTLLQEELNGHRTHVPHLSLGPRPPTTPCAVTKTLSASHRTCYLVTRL
Experimental: as §4
(§5) The analysis of electrophysiological data was performed using the program OriginPro 8.6. […]

human ASIC3 (hASIC3) [4] = target: T1, human ASIC3 (hASIC3); test: Recovery of the transient current of hASIC3 from steady-state desensitization, oocytes; assay type: cell-based; conditions: hASIC3, conditioning pH 7.3, pH 5.5 stimulus, n = 4-5
Experimental: EIAs cause both the channel activation and transient component of hASIC3 current restoration from a desensitization at pH 7.3 (Figures 2A,D). For THP, the restoration effect was more pronounced. This effect was dose-dependent and reached a maximal possible value at the highest applied concentration of THP (10 mM). […] For this reason, the maximal amplitude of the transient current recovered by THP from desensitization (Imax) was predicted by the fitting of the dose dependence by a logistic equation for each experimental cell.
as §4, with “To induce currents, we employed ND-96-modified solutions in which 10 mM of HEPES was substituted for 5 mM MES pH 5.5. A set of external ND-96 solutions with pH 6.8–7.0 (buffered with 10 mM of MOPS), pH 7.1–8.0 (buffered with 10 mM of HEPES) was prepared.” left out

rat ASIC3 (rASIC3) [5] = target: T2, rat ASIC3 (rASIC3); test: Activation of rASIC3 channels expressed in Xenopus laevis oocytes, whole-cell two electrode voltage clamp; assay type: cell-based
Text: as §2, §3, §4, §5

[6] = hASIC3, holding pH 7.8, logistic fit, n = 5

Structure (SMILES): COc1ccc(CC2c3cc(O)c(OC)cc3CCN2C)cc1O (stereo not drawn) [Reticuline, reticuline]
- Solubility in physiological solutions for electrophysiology [1]: does not have a high solubility
- Hill coefficient (nH) of channel activation (human ASIC3 (hASIC3) [2]; [6]): 0.85 ± 0.05
- EC50 (human ASIC3 (hASIC3) [2]; hASIC3, holding pH 7.8, logistic fit, n = 5, read-out: EC50 of channel activation (EIA-induced sustained current)): 0.56 ± 0.04 mM
- Maximal activating effect reached, % of Imax (human ASIC3 (hASIC3) [2]; hASIC3, maximal concentration 1 mM): about 60 % of Imax

Structure (SMILES): Oc1ccc(CC2NCCc3cc(O)c(O)cc32)cc1O (stereo not drawn) [THP, tetrahydropapaveroline]
- EC50 (rat ASIC3 (rASIC3) [3]): 4.6 ± 0.1 mM
- EC50 (human ASIC3 (hASIC3) [4]): 2.3 ± 0.04 mM
- Hill coefficient (nH) of channel activation (rat ASIC3 (rASIC3) [5]; rASIC3, holding pH 7.8, logistic fit, n = 5): 0.95 ± 0.04
- EC50 (rat ASIC3 (rASIC3) [5]; rASIC3, holding pH 7.8, logistic fit, n = 5, read-out: EC50 of channel activation (EIA-induced sustained current)): > 10 mM
- Maximal activating effect reached, % of Imax (rat ASIC3 (rASIC3) [5]; rASIC3, pH 7.8, up to 10 mM, Imax predicted by logistic fit): about 30 % of Imax
- EC50 (human ASIC3 (hASIC3) [2]): > 10 mM
- Hill coefficient (nH) of channel activation (human ASIC3 (hASIC3) [2]; [6]): 0.99 ± 0.05
- Maximal activating effect reached, % of Imax (human ASIC3 (hASIC3) [2]; hASIC3, pH 7.8, highest accessible concentration 10 mM): about 30 % of Imax
